Measured values taken from patent publication US20070015232A1, “Mitotic index assay” (DiscoveRx, Inc., priority 2005, published 2007).

How the values were obtained:
[1] = test system: C2C12+EA-NLS/NRS+GR-PL cells; experiment: EFC mitotic index assay, C2C12+EA-NLS/NRS+GR-PL cells (Stanford GR cells); format: cell-based, mouse; conditions: for Avg luminescence readout / R1 luminescence readout / R3 luminescence readout / Ratio (Avg vs 0 conc): 24 hours, 30 min read
Experimental: (§1) In all experiments described, 20,000 cells/well were plated in a 96 well Corning clear bottom white plate in a total volume of 100 μL. The cells were treated for 24 hours with 5 μL of either the appropriate vehicle control or varying concentrations of the six compounds listed above. The next day, 100 μL of Tropix/ABI Gal screen cell lysis buffer/substrate mixture (24:1 ratio of component) was added to the cells/media and the plate was read on the Victor II luminescent plate reader at 30, 60 and 120 minutes after the lysis/substrate addition.
(§2) The initial test of the cell cycle arresting compounds was performed on a double stable cell line having both of the constructs expressing the EA-NLS/NRS and GR-PL. (PL is β-galactosidase enzyme donor fragment and EA is the enzyme acceptor fragment available from DiscoveRx, Fremont, CA.). The parental line, C2C12 is derived from mouse muscle cells. In the experiments in which EA-NLS/NRS and GR-PL are expressed in the C2C12 parental cell line, the constructs were generated by subcloning the human GR sequence into a MFG-based retroviral vector that had been molecularly altered in a lab at Stanford. An MFG vector is described in U.S. Pat. No. 6,544,771. The EA-NLS/NRS fragment was subcloned into a wzl-based retroviral vector again molecularly altered in a lab at Stanford. In the experiments performed using a CHO-K1 parental cell line background the EA-NLS/NRS was subcloned into the Kpn I and Xba I sites of pcDNA3.1 Hygro vector from Invitrogen (catalog #V870-20). The plasmid was introduced into the cells via FuGene6 (Roche) transfection reagent. Cells were selected in the presence of 250 μg/mL of Hygromycin and single cell clones isolated that expressed the EA-NLS/NRS. The human GR gene was cloned by PCR and subcloned into the Xho I and Bam HI sites of the DiscoveRx vector-pCMV-myc-PL (C3). The plasmid was introduced into the selected EA-NLS/NRS expressing clone isolated above by FuGene 6 transfection. Another round of screening in the presence of 300-500 μg/mL of G418 was used to select GR-PL transfected clones. Clonal selection was performed to finally identify the clone that was used in these studies. In the studies using the CHO-K1+cyto-EA and cJUN-PL, the same Invitrogen pcDNA3.1 Hygro vector was used to express EA. In this case, the EA fragment was subcloned into the Kpn I/Not I sites of pcDNA3.1 Hygro. The plasmid DNA was introduced as described above using FuGene6 reagent. Cells were selected in the presence of 250 μg/mL of hygromycin and clonal selection was performed. The c-Jun gene was generated by PCR using an existing template copy of the gene and then subcloned into the Xho I/Bam HI sites of pCMV-PL-myc (C3).

[2] = test system: CHO-K1+cyto-EA cells transfected with cJUN-PL; experiment: EFC mitotic index assay, CHO-K1+cyto-EA cells transiently transfected with cJUN-PL; format: cell-based; conditions: for Avg luminescence readout / R1 luminescence readout / R3 luminescence readout / Ratio (Avg vs 0 conc): overnight
Experimental: as §2
To further test the concept of sequestering of one β-galactosidase enzyme fragment in the nucleus (in this case PL) while localizing the other component in the cytoplasm (in this case EA) the following experiment was carried out. […] The cyto-EA cells were transiently transfected with cJUN-PL plasmid DNA. Two days after the transfection, the cells were re-plated into a 96 well Corning white clear bottom multiwell plate at 20,000 cells/well. The cells were allowed to adhere overnight and the next day were treated with titrating concentrations of the six different cell cycle blocking compounds. The incubation was carried out overnight. The next day the media was removed from the cells and 100 μL of Tropix/ABI Gal screen cell lysis/substrate reagent was added to the cells.

[3] = test system: CHO-K1+EA-NLS/NRS+GR-PL cells; experiment: EFC mitotic index assay, CHO-K1+EA-NLS/NRS+GR-PL cells, antibiotic selected pool (DX M19/GR pool); format: cell-based; conditions: for Avg luminescence readout / R1 luminescence readout / R3 luminescence readout / Ratio (Avg vs 0 conc): 24 hours, 30 min read
Experimental: as §1, §2
In the next experiment, an antibiotic selected pool population of CHO-K1 cells that express EA-NLS/NRS and GR-PL were tested with the same six set of cell cycle blocking compounds. […] FIGS. 2a and 2b show the immunofluorescence localization of EA and GR-PL in that the blue DAPI nuclear staining can be seen to be concentrated in the nucleus, while the green fluorescein stain on the antibody (from Abcam PLC) to the glucocorticoid receptor is seen in the cytoplasm. […] Again, six tables are presented one for each of the six drugs tested.
This only occurs with compounds that block the cells in mitosis, allowing EA and ProLabel to complement.

Question: Which results are given for `C[C@@]1(CO)[C@H](O)CC[C@@]2(C)[C@H]1CC[C@H]1C[C@@H]3C[C@@]12CC[C@]3(O)CO` [Aphidicolin, aphidicolin]?
Answer: Avg luminescence readout ([1]; 0.3 μM): 3444; R1 luminescence readout ([1]; 0.3 μM): 3081; R3 luminescence readout ([1]; 0.3 μM): 3500; Ratio (Avg vs 0 conc) ([1]; 0.3 μM): 1; Avg luminescence readout ([1]; 1 μM): 3307; R1 luminescence readout ([1]; 1 μM): 3250; R3 luminescence readout ([1]; 1 μM): 3388; Ratio (Avg vs 0 conc) ([1]; 1 μM): 1; Avg luminescence readout ([1]; 3.3 μM): 3132; R1 luminescence readout ([1]; 3.3 μM): 3171; R3 luminescence readout ([1]; 3.3 μM): 3105; Ratio (Avg vs 0 conc) ([1]; 3.3 μM): 1; Avg luminescence readout ([1]; 10.0 μM): 3413; R1 luminescence readout ([1]; 10.0 μM): 2827; R3 luminescence readout ([1]; 10.0 μM): 3765; Ratio (Avg vs 0 conc) ([1]; 10.0 μM): 1; Avg luminescence readout ([2]; 1.5 μg/mL): 7545; R1 luminescence readout ([2]; 1.5 μg/mL): 7218; R3 luminescence readout ([2]; 1.5 μg/mL): 7576; Ratio (Avg vs 0 conc) ([2]; 1.5 μg/mL): 0.9; Avg luminescence readout ([2]; 4.4 μg/mL): 9193; R1 luminescence readout ([2]; 4.4 μg/mL): 9492; R3 luminescence readout ([2]; 4.4 μg/mL): 9245; Ratio (Avg vs 0 conc) ([2]; 4.4 μg/mL): 1.1; Avg luminescence readout ([2]; 13.3 μg/mL): 7027; R1 luminescence readout ([2]; 13.3 μg/mL): 6677; R3 luminescence readout ([2]; 13.3 μg/mL): 7784; Ratio (Avg vs 0 conc) ([2]; 13.3 μg/mL): 0.8; Avg luminescence readout ([2]; 40.0 μg/mL): 9131; R1 luminescence readout ([2]; 40.0 μg/mL): 8645; R3 luminescence readout ([2]; 40.0 μg/mL): 9818; Ratio (Avg vs 0 conc) ([2]; 40.0 μg/mL): 1.0; increase in EFC activity (in words) ([2]; overnight incubation): negligible increase in EFC activity; Avg luminescence readout ([3]; 0.3 μM): 5508; R1 luminescence readout ([3]; 0.3 μM): 5478; R3 luminescence readout ([3]; 0.3 μM): 5469; Ratio (Avg vs 0 conc) ([3]; 0.3 μM): 1; Avg luminescence readout ([3]; 1 μM): 5604; R1 luminescence readout ([3]; 1 μM): 5656; R3 luminescence readout ([3]; 1 μM): 5491; Ratio (Avg vs 0 conc) ([3]; 1 μM): 1; Avg luminescence readout ([3]; 3.3 μM): 4561; R1 luminescence readout ([3]; 3.3 μM): 4392; R3 luminescence readout ([3]; 3.3 μM): 4749; Ratio (Avg vs 0 conc) ([3]; 3.3 μM): 0; Avg luminescence readout ([3]; 10.0 μM): 6941; R1 luminescence readout ([3]; 10.0 μM): 7213; R3 luminescence readout ([3]; 10.0 μM): 6651; Ratio (Avg vs 0 conc) ([3]; 10.0 μM): 1; increase in EFC activity (in words) ([3]; overnight treatment): did not cause an increase in EFC activity

Question: What does the source list for `CC(=O)O[C@H]1C(=O)[C@@]2(C)[C@H]([C@H](OC(=O)c3ccccc3)[C@]3(O)C[C@H](OC(=O)[C@H](O)[C@@H](NC(=O)c4ccccc4)c4ccccc4)C(C)=C1C3(C)C)[C@]1(OC(C)=O)CO[C@@H]1C[C@@H]2O` [Taxol, paclitaxel]?
Answer: Avg luminescence readout ([1]; 0.03 μM): 3094; R1 luminescence readout ([1]; 0.03 μM): 2624; R3 luminescence readout ([1]; 0.03 μM): 3543; Ratio (Avg vs 0 conc) ([1]; 0.03 μM): 1; Avg luminescence readout ([1]; 0.1 μM): 3684; R1 luminescence readout ([1]; 0.1 μM): 2602; R3 luminescence readout ([1]; 0.1 μM): 4340; Ratio (Avg vs 0 conc) ([1]; 0.1 μM): 1; Avg luminescence readout ([1]; 0.3 μM): 3213; R1 luminescence readout ([1]; 0.3 μM): 2638; R3 luminescence readout ([1]; 0.3 μM): 3639; Ratio (Avg vs 0 conc) ([1]; 0.3 μM): 1; Avg luminescence readout ([1]; 1 μM): 3692; R1 luminescence readout ([1]; 1 μM): 3016; R3 luminescence readout ([1]; 1 μM): 4104; Ratio (Avg vs 0 conc) ([1]; 1 μM): 1; Avg luminescence readout ([3]; 0.03 μM): 7167; R1 luminescence readout ([3]; 0.03 μM): 7314; R3 luminescence readout ([3]; 0.03 μM): 6605; Ratio (Avg vs 0 conc) ([3]; 0.03 μM): 1; Avg luminescence readout ([3]; 0.1 μM): 9961; R1 luminescence readout ([3]; 0.1 μM): 10680; R3 luminescence readout ([3]; 0.1 μM): 9258; Ratio (Avg vs 0 conc) ([3]; 0.1 μM): 2; Avg luminescence readout ([3]; 0.3 μM): 9506; R1 luminescence readout ([3]; 0.3 μM): 11709; R3 luminescence readout ([3]; 0.3 μM): 7904; Ratio (Avg vs 0 conc) ([3]; 0.3 μM): 1; Avg luminescence readout ([3]; 1 μM): 15972; R1 luminescence readout ([3]; 1 μM): 17111; R3 luminescence readout ([3]; 1 μM): 14344; Ratio (Avg vs 0 conc) ([3]; 1 μM): 2

Question: For `CC[C@]1(O)C[C@@H]2CN(CCc3c([nH]c4ccccc34)[C@@](C(=O)OC)(c3cc4c(cc3OC)N(C)[C@H]3[C@@](O)(C(=O)OC)[C@H](OC(C)=O)[C@]5(CC)C=CCN6CC[C@]43[C@@H]65)C2)C1` [Vinblastine], which “increase in EFC activity (in words)” value [1] is on record?
Answer: no increase in EFC activity

Question: What about the Avg luminescence readout ([1]; 1.0 μg/mL) of the same compound?
Answer: 10744

Question: What about the R1 luminescence readout ([1]; 1.0 μg/mL) of the same compound?
Answer: 10417.0

Question: And the R3 luminescence readout ([1]; 1.0 μg/mL)?
Answer: 11042

Question: And the “Ratio (Avg vs 0 conc)” value ([1]; 1.0 μg/mL)?
Answer: 1

Question: What about the Avg luminescence readout ([1]; 3.3 μg/mL) of the same compound?
Answer: 12078

Question: What about the R1 luminescence readout ([1]; 3.3 μg/mL) of the same compound?
Answer: 10894.0

Question: What about the R3 luminescence readout ([1]; 3.3 μg/mL) of the same compound?
Answer: 13468

Question: What about the “Ratio (Avg vs 0 conc)” value ([1]; 3.3 μg/mL) of the same compound?
Answer: 1

Question: And the Avg luminescence readout ([1]; 10.0 μg/mL)?
Answer: 10751

Question: And the R1 luminescence readout ([1]; 10.0 μg/mL)?
Answer: 10269.0

Question: And the R3 luminescence readout ([1]; 10.0 μg/mL)?
Answer: 11281

Question: And the “Ratio (Avg vs 0 conc)” value ([1]; 10.0 μg/mL)?
Answer: 1

Question: And the Avg luminescence readout ([1]; 30.0 μg/mL)?
Answer: 10933

Question: What about the R1 luminescence readout ([1]; 30.0 μg/mL) of the same compound?
Answer: 10692.0

Question: What about the R3 luminescence readout ([1]; 30.0 μg/mL) of the same compound?
Answer: 11196

Question: What about the “Ratio (Avg vs 0 conc)” value ([1]; 30.0 μg/mL) of the same compound?
Answer: 1

Question: What about the Avg luminescence readout ([3]; 1.0 μg/mL) of the same compound?
Answer: 4335

Question: What about the R1 luminescence readout ([3]; 1.0 μg/mL) of the same compound?
Answer: 4205

Question: And the R3 luminescence readout ([3]; 1.0 μg/mL)?
Answer: 4277

Question: What about the “Ratio (Avg vs 0 conc)” value ([3]; 1.0 μg/mL) of the same compound?
Answer: 1

Question: What about the Avg luminescence readout ([3]; 3.3 μg/mL) of the same compound?
Answer: 4345

Question: And the R1 luminescence readout ([3]; 3.3 μg/mL)?
Answer: 4410

Question: And the R3 luminescence readout ([3]; 3.3 μg/mL)?
Answer: 4436

Question: What about the “Ratio (Avg vs 0 conc)” value ([3]; 3.3 μg/mL) of the same compound?
Answer: 1

Question: And the Avg luminescence readout ([3]; 10.0 μg/mL)?
Answer: 4078

Question: What about the R1 luminescence readout ([3]; 10.0 μg/mL) of the same compound?
Answer: 3907

Question: And the R3 luminescence readout ([3]; 10.0 μg/mL)?
Answer: 4201

Question: And the “Ratio (Avg vs 0 conc)” value ([3]; 10.0 μg/mL)?
Answer: 1

Question: What about the Avg luminescence readout ([3]; 30.0 μg/mL) of the same compound?
Answer: 5919

Question: And the R1 luminescence readout ([3]; 30.0 μg/mL)?
Answer: 5161

Question: And the R3 luminescence readout ([3]; 30.0 μg/mL)?
Answer: 6583

Question: What about the “Ratio (Avg vs 0 conc)” value ([3]; 30.0 μg/mL) of the same compound?
Answer: 1
